Assays:
Type in all cases: in vivo
Settings in all cases: 20% concentration
[1] = tested on: bedbugs, Cimex lectularius; assay: Insect repellent bioassay, bedbugs (treated tile arena)
Method: (§1) A laboratory bioassay was conducted to screen 5 compounds (Icaridin (38); and 4 icaridin analogues: 39, 40a, 42a and 41) for repellent activity against houseflies, Musca domestica, black ants, Lasius niger, German cockroaches, Blattella germanica, and bedbugs, Cimex lectularius. Compounds were diluted in a mixture of ethanol and water and assessed at a 20% concentration. A mixture of ethanol/water only negative control was also included for comparative purposes. These were applied onto an aluminium foil tile, which was placed into one half of an arena. The other half of the arena contained an untreated aluminium foil tile. The number of insects present in the treated and untreated area was assessed every 5 minutes for a total of 20 minutes.
Bedbugs, Cimex lectularius, were obtained from a laboratory culture maintained at CimexStore (Chepstow, UK). Mixed age and sex adult bedbugs were used in the experiments (see deviation below).
(§2) Temperature was maintained between 24.2 and 24.6° C. and relative humidity ranged between 27.5% and 43.5%, throughout the experimental period.
(§3) The tested compounds were diluted in ethanol and water to a concentration of 20% (w/w: compound 20%, ethanol 40%, water 40%). The concentrates were prepared at room temperature and stirred for approximately 15 minutes using a vortex mixer. A negative control (mixture of ethanol:water 50:50) was also included in the testing for comparative purposes. Treatments were applied directly on to a non porous surface (aluminium foil), using a Gilson pipette at a rate of 0.225 ml per 225 cm^2 surface tile. A small piece of acetate was used to evenly spread the treatments across the entire surface of the tile.
(§4) For the testing against ants, cockroaches and bedbugs: A clear plastic container was used measuring approximately 34 cm long×21 cm wide×20 cm high. This was divided into two halves. The treated aluminium foil was placed in one half and the other half contained untreated foil. Food (sugar cube for black ants and bran pellet for cockroaches) and water (damp cotton wool) were placed in each half where appropriate. Twenty ants/cockroaches and ten bedbugs were placed in the centre of the arena. The number of insects in each half was assessed at 5 minute intervals for a total of 20 minutes.
(§5) Three to six replicates were performed for each treatment, for each species.

[2] = tested on: houseflies, Musca domestica; assay: Insect repellent bioassay, houseflies (treated tile arena)
Method: as §1
(§6) Houseflies, Musca domestica, and German cockroaches, Blattella germanica, were obtained from a laboratory culture maintained at i2LResearch. Mixed sex and age adult insects (flies were aged 3-6 days old) were used in the experiments.
as §2, §3
For the testing against houseflies: A clear plastic container was used measuring approximately 34 cm long×21 cm wide×20 cm high, with a piece of netting and lid on top. This was divided into two halves using an additional tile with a small slit measuring approximately 2.5 cm×5 cm cut at a height of […] from the base, so that the insects could freely travel between halves. A treated and untreated tile was placed either side of the dividing panel. Twenty flies were placed in the half with the treated surface. Sugar and water was placed in both halves. The number of insects crossing from the treated area into the untreated area was assessed at 5 minute intervals for a total of 20 minutes.
as §5

[3] = tested on: German cockroaches, Blattella germanica; assay: Insect repellent bioassay, German cockroaches (treated tile arena)
Method: as §1, §6, §2, §3, §4, §5

[4] = tested on: black ants, Lasius niger; assay: Insect repellent bioassay, black ants (treated tile arena)
Method: as §1
Black ants, Lasius niger, were field collected from the Cardiff area. Mixed age worker ants were used in the experiments.
as §2, §3, §4, §5

| Structure (SMILES) | insects on the treated tile ([1]; TIME 5 mins) | insects on the treated tile ([1]; TIME 10 mins) | insects on the treated tile ([1]; TIME 15 mins) | insects on the treated tile ([1]; TIME 20 mins) | insects moving towards the treated tile ([2]; TIME 5 mins) | insects moving towards the treated tile ([2]; TIME 10 mins) | insects moving towards the treated tile ([2]; TIME 15 mins) | insects moving towards the treated tile ([2]; TIME 20 mins) | insects on the treated tile ([3]; TIME 5 mins) | insects on the treated tile ([3]; TIME 10 mins) | insects on the treated tile ([3]; TIME 15 mins) | insects on the treated tile ([3]; TIME 20 mins) | insects on the treated tile ([4]; TIME 5 mins) | insects on the treated tile ([4]; TIME 10 mins) | insects on the treated tile ([4]; TIME 15 mins) | insects on the treated tile ([4]; TIME 20 mins) |
| --- | --- | --- | --- | --- | --- | --- | --- | --- | --- | --- | --- | --- | --- | --- | --- | --- |
| CCC(C)OC(=O)N1CCCCC1CC(=O)O (stereo not drawn) [Compound 41, 2-(1-sec-Butoxycarbonyl-2-piperidyl)acetic acid] | A (10% or less of the insects were on the treated tile) | B (between 11% and 25% were on the treated tile) | B (between 11% and 25% were on the treated tile) | B (between 11% and 25% were on the treated tile) | A (10% or less of the insects were on the treated tile) | A (10% or less of the insects were on the treated tile) | B (between 11% and 25% were on the treated tile) | B (between 11% and 25% were on the treated tile) | B (between 11% and 25% were on the treated tile) | B (between 11% and 25% were on the treated tile) | B (between 11% and 25% were on the treated tile) | B (between 11% and 25% were on the treated tile) | C (greater than 25% were on the treated tile) | C (greater than 25% were on the treated tile) | C (greater than 25% were on the treated tile) | C (greater than 25% were on the treated tile) |
| CCC(C)OC(=O)N1CCCCC1CC(=O)OC (stereo not drawn) [Compound 42a, sec-Butyl 2-(2-methoxy-2-oxo-ethyl)piperidine-1-carboxylate] | A (10% or less of the insects were on the treated tile) | A (10% or less of the insects were on the treated tile) | A (10% or less of the insects were on the treated tile) | A (10% or less of the insects were on the treated tile) | A (10% or less of the insects were on the treated tile) | A (10% or less of the insects were on the treated tile) | B (between 11% and 25% were on the treated tile) | B (between 11% and 25% were on the treated tile) | B (between 11% and 25% were on the treated tile) | B (between 11% and 25% were on the treated tile) | B (between 11% and 25% were on the treated tile) | B (between 11% and 25% were on the treated tile) | B (between 11% and 25% were on the treated tile) | B (between 11% and 25% were on the treated tile) | B (between 11% and 25% were on the treated tile) | A (10% or less of the insects were on the treated tile) |
| CCC(C)OC(=O)N1CCCCC1CCO (stereo not drawn) [Icaridin (38), Icaridin, reference compound] | A (10% or less of the insects were on the treated tile) | A (10% or less of the insects were on the treated tile) | A (10% or less of the insects were on the treated tile) | A (10% or less of the insects were on the treated tile) | B (between 11% and 25% were on the treated tile) | C (greater than 25% were on the treated tile) | C (greater than 25% were on the treated tile) | C (greater than 25% were on the treated tile) | B (between 11% and 25% were on the treated tile) | B (between 11% and 25% were on the treated tile) | A (10% or less of the insects were on the treated tile) | A (10% or less of the insects were on the treated tile) | B (between 11% and 25% were on the treated tile) | B (between 11% and 25% were on the treated tile) | B (between 11% and 25% were on the treated tile) | A (10% or less of the insects were on the treated tile) |

From US20150094474A1, “AGRICULTURAL CHEMICALS” (Redx Pharma Ltd., priority 2012, published 2015)
